Assay [1] deals with T1, PSMA (Homo sapiens, UniProt Q04609).
T1 construct: 100 μL of freshly harvested PSMA cells; endogenous in cells; host or cells: 'PSMA cells' in the method
Kind of assay: In vitro competitive binding assay to determine IC50 to PSMA. Conditions: LNCaP cells, [125I]MIP-1095 radioligand, 37° C. 1 h, mean±SD (n=4); read-out: PSMA binding affinities of cold ligands, IC50. As to the method: In Vitro Competitive Binding Assay to Determine IC50 to PSMA
In order to determine the binding affinity, in vitro competitive binding assays were performed. The LNCaP cells were incubated with 150,000 cpm of [^125I]MIP-1095 in the presence of 10 different concentrations of competing drugs. After incubation at 37° C. for 1 h, the bound and free radioactivity were separated by vacuum filtration through GF/B filter paper using a Brandel M-24R cell harvester followed by washing twice. Non-specific binding was defined with 10 μM PMPA. The cell bound radioactivity was measured with a gamma counter, 2470 Wizard^2 (Perkin-Elmer, IL). The IC50 values were calculated by fitting the data using a nonlinear regression algorithm (GraphPad Software).
The PSMA binding affinities were determined in a competitive binding assay using LNCaP human prostate carcinoma cells and the known high affinity PSMA ligand, [^125I]MIP-1095 as the radioligand. Data are expressed as mean±SD (n=4).

Assay [2] has as its target T1, PSMA. Description: In vitro binding signals of 68Ga labeled ligands in LNCaP tumor homogenates. Conditions: Ga-68 radiolabeled ligands; for Total binding (TB): 37° C. 60 min; for Nonspecific binding (NSB): with 1a (PSMA11) 10 μM.

In general, IC50 refers to the concentration needed to halve the response being measured.

T1 sequence (Q04609 whole entry): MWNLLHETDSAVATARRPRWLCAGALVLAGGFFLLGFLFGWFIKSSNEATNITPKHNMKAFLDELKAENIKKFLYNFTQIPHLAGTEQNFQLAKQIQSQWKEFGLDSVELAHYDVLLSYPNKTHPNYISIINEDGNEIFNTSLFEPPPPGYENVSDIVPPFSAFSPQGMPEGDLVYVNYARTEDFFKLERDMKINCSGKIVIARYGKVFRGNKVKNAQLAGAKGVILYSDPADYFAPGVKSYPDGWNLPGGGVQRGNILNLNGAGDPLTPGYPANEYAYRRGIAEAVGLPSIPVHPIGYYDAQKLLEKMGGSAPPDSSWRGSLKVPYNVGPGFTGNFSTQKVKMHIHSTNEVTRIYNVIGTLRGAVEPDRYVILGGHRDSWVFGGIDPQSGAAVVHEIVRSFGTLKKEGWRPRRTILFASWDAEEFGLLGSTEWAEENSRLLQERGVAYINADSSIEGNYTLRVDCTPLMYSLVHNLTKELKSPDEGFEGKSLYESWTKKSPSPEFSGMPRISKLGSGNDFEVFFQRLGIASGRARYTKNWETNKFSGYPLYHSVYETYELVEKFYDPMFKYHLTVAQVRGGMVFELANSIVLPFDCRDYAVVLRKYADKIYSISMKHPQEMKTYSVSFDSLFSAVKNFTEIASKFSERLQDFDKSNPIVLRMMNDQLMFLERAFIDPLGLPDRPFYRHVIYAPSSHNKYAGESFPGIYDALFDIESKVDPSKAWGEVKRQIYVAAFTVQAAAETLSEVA

With `O=C(O)CCc1ccc(O)c(CN(CCN(CC(=O)O)Cc2cc(CCC(=O)NCCCCCC(=O)NCCCC[C@H](NC(=O)N[C@@H](CCC(=O)O)C(=O)O)C(=O)O)ccc2O)CC(=O)O)c1` [Compound 1a, Glu-NH—CO—NH-Lys(Ahx)-HBED-CC, reference compound], the IC50 at PSMA [1] was 16.6 ± 2.4 nM. Besides, on PSMA [2], the “Specific binding (SB) SB = TB − NSB” value worked out at 12.3, the “Total binding (TB)” value is on record as 13.5 and the “Nonspecific binding (NSB)” value came out at 1.2.
With `O=C(O)CC[C@H](NC(=O)N[C@@H](CCCCNC(=O)CCCCCNC(=O)CCc1ccc(O)c(CN(CCN(CC(=O)O)Cc2cc(CCC(=O)N[C@H]3C(O)O[C@H](CO)[C@@H](O)[C@@H]3O)ccc2O)CC(=O)O)c1)C(=O)O)C(=O)O` (stereo partly drawn) [Compound 1b, (3S,7S)-22-(3-(((Carboxymethyl)(2-((carboxymethyl)(2-hydroxy-5-(3-oxo-3-(((3R,4R,5S,6R)-2,4,5-trihydroxy-6-(hydroxymethyl)tetrahydro-2H-pyran-3-yl)amino)propyl)benzyl)amino)ethyl)amino)methyl)-4-hydroxyphenyl)-5,13,20-trioxo-4,6,12,19-tetraazadocosane-1,3,7-tricarboxylic acid], the IC50 on PSMA [1] was determined as 53.3 ± 30.9 nM. At PSMA [2], the “Specific binding (SB) SB = TB − NSB” value came to 8.8, the “Total binding (TB)” value is 10.8 and the “Nonspecific binding (NSB)” value is given as 2.0.
Taken in the same sequence, the figures for `O=C(O)CC[C@H](NC(=O)N[C@@H](CCCCNC(=O)CCCCCNC(=O)CCc1ccc(O)c(CN(CCN(CC(=O)O)Cc2cc(CCC(=O)NCC(=O)O)ccc2O)CC(=O)O)c1)C(=O)O)C(=O)O` [Compound 1c, (3S,7S)-22-(3-(((Carboxymethyl)(2-((carboxymethyl)(5-(3-((carboxymethyl)amino)-3-oxopropyl)-2-hydroxybenzyl)amino)ethyl)amino)methyl)-4-hydroxyphenyl)-5,13,20-trioxo-4,6,12,19-tetraazadocosane-1,3,7-tricarboxylic acid] were 25.6 ± 9.4 nM, 11.8, 13.4 and 1.6.
Taken in the same sequence, the figures for `C[C@H](NC(=O)CCc1ccc(O)c(CN(CCN(CC(=O)O)Cc2cc(CCC(=O)NCCCCCC(=O)NCCCC[C@H](NC(=O)N[C@@H](CCC(=O)O)C(=O)O)C(=O)O)ccc2O)CC(=O)O)c1)C(=O)O` [Compound 1d, (3S,7S)-22-(3-(((2-((5-(3-(((S)-1-Carboxyethyl)amino)-3-oxopropyl)-2-hydroxybenzyl)(carboxymethyl)amino)ethyl)(carboxymethyl)amino)methyl)-4-hydroxyphenyl)-5,13,20-trioxo-4,6,12,19-tetraazadocosane-1,3,7-tricarboxylic acid] were 26.8 ± 6.3 nM, 11.2, 12.6 and 1.4.
Taken in the same sequence, the figures for `O=C(O)CC[C@H](NC(=O)N[C@@H](CCCCNC(=O)CCCCCNC(=O)CCc1ccc(O)c(CN(CCN(CC(=O)O)Cc2cc(CCC(=O)N[C@@H](CC(=O)O)C(=O)O)ccc2O)CC(=O)O)c1)C(=O)O)C(=O)O` [Compound 1e, (3S,7S)-22-(3-(((Carboxymethyl)(2-((carboxymethyl)(5-(3-(((S)-1,2-dicarboxyethyl)amino)-3-oxopropyl)-2-hydroxybenzyl)amino)ethyl)amino)methyl)-4-hydroxyphenyl)-5,13,20-trioxo-4,6,12,19-tetraazadocosane-1,3,7-tricarboxylic acid] were 29.5 ± 11 nM, 13.2, 14.8 and 1.6.
For the compound `O=C(O)CC[C@H](NC(=O)CCc1ccc(O)c(CN(CCN(CC(=O)O)Cc2cc(CCC(=O)NCCCCCC(=O)NCCCC[C@H](NC(=O)N[C@@H](CCC(=O)O)C(=O)O)C(=O)O)ccc2O)CC(=O)O)c1)C(=O)O` [Compound 1f, (3S,7S)-22-(3-(((Carboxymethyl)(2-((carboxymethyl)(5-(3-(((S)-1,3-dicarboxypropyl)amino)-3-oxopropyl)-2-hydroxybenzyl)amino)ethyl)amino)methyl)-4-hydroxyphenyl)-5,13,20-trioxo-4,6,12,19-tetraazadocosane-1,3,7-tricarboxylic acid], the half-maximal inhibitory concentration (IC50) at PSMA [1] was found to be 37.2 ± 18.6 nM. Also, on PSMA [2], the “Specific binding (SB) SB = TB − NSB” value turned out to be 12.0, the “Total binding (TB)” value was determined as 13.5 and the “Nonspecific binding (NSB)” value amounted to 1.5.
Taken in the same sequence, the figures for `O=C(O)CC[C@H](NC(=O)N[C@@H](CCCCNC(=O)CCCCCNC(=O)CCc1ccc(O)c(CN(CCN(CC(=O)O)Cc2cc(CCC(=O)NCCNC(=O)CN3CCN(CC(=O)O)CCN(CC(=O)O)CCN(CC(=O)O)CC3)ccc2O)CC(=O)O)c1)C(=O)O)C(=O)O` [Compound 1g, (3S,7S)-22-(3-(((carboxymethyl)(2-((carboxymethyl)(2-hydroxy-5-(3-oxo-3-((2-(2-(4,7,10-tris(carboxymethyl)-1,4,7,10-tetraazacyclododecan-1-yl)acetamido)ethyl)amino)propyl)benzyl)amino)ethyl)amino)methyl)-4-hydroxyphenyl)-5,13,20-trioxo-4,6,12,19-tetraazadocosane-1,3,7-tricarboxylic acid] were 70.2 ± 29.1 nM, 9.0, 10.5 and 1.5.
Take `O=C(O)CCc1ccc(O)c(CN(CCN(CC(=O)O)Cc2nc(CCC(=O)NCCCCCC(=O)NCCCC[C@H](NC(=O)N[C@@H](CCC(=O)O)C(=O)O)C(=O)O)ccc2O)CC(=O)O)n1` [Compound 2, (3S,7S)-22-(6-(((2-(((6-(2-Carboxyethyl)-3-hydroxypyridin-2-yl)methyl) (carboxymethyl)amino)ethyl)(carboxymethyl)amino)methyl)-5-hydroxypyridin-2-yl)-5,13,20-trioxo-4,6,12,19-tetraazadocosane-1,3,7-tricarboxylic acid]: on PSMA [1], the IC50 is 40.4 ± 18.3 nM. Moreover, on PSMA [2], the “Specific binding (SB) SB = TB − NSB” value was 4.1, the “Total binding (TB)” value was 9.2 and the “Nonspecific binding (NSB)” value amounted to 5.1.
Taken in the same sequence, the figures for `O=C(O)CC[C@H](NC(=O)N[C@@H](CCCCNC(=O)CCCCCNC(=O)CCc1ccc(O)c(CN(CCN(CC(=O)O)Cc2nc(CCC(=O)NCCCCCC(=O)NCCCC[C@H](NC(=O)N[C@@H](CCC(=O)O)C(=O)O)C(=O)O)ccc2O)CC(=O)O)n1)C(=O)O)C(=O)O` [Compound 3, (3S,3′S,7S,7′S)-22,22′-(6,6′-((Ethane-1,2-diylbis((carboxymethyl)azanediyl))bis(methylene))bis(5-hydroxypyridine-6,2-diyl))bis(5,13,20-trioxo-4,6,12,19-tetraazadocosane-1,3,7-tricarboxylic acid)] were 132 ± 11 nM, 5.8, 10.0 and 4.2.
Taken in the same sequence, the figures for `O=C(O)CCc1ccc(O)c(CN(CCN(CC(=O)O)Cc2cc(CCC(=O)NCCCCCC(=O)NCCCC[C@H](NC(=O)N[C@@H](CCC(=O)O)C(=O)O)C(=O)O)ccc2O)CC(=O)O)n1` [Compound 4a, (3S,7S)-22-(3-(((2-(((6-(2-Carboxyethyl)-3-hydroxypyridin-2-yl)methyl)(carboxymethyl)amino)ethyl)(carboxymethyl)amino)methyl)-4-hydroxyphenyl)-5,13,20-trioxo-4,6,12,19-tetraazadocosane-1,3,7-tricarboxylic acid] were 67.4 ± 30.3 nM, 12.0, 13.4 and 1.4.
Taken in the same sequence, the figures for `O=C(O)CCc1ccc(O)c(CN(CCN(CC(=O)O)Cc2nc(CCC(=O)NCCCCCC(=O)NCCCC[C@H](NC(=O)N[C@@H](CCC(=O)O)C(=O)O)C(=O)O)ccc2O)CC(=O)O)c1` [Compound 4b, (3S,7S)-22-(6-(((2-((5-(2-Carboxyethyl)-2-hydroxybenzyl)(carboxymethyl)amino)ethyl) (carboxymethyl)amino)methyl)-5-hydroxypyridin-2-yl)-5,13,20-trioxo-4,6,12,19-tetraazadocosane-1,3,7-tricarboxylic acid] were 40.5 ± 20.5 nM, 8.8, 10.3 and 1.5.
`O=C(O)CC[C@H](NC(=O)N[C@@H](CCCCNC(=O)[C@H](Cc1ccccc1)NC(=O)COc1ccc(C[C@H](NC(=O)CNC(=O)CN2CCN(CC(=O)O)CCN(CC(=O)O)CCN(CC(=O)O)CC2)C(=O)O)cc1)C(=O)O)C(=O)O` [Compound 5a, (4S,11S,15S)-4-Benzyl-1-(4-((S)-2-carboxy-2-(2-(2-(4,7,10-tris(carboxymethyl)-1,4,7,10-tetraazacyclododecan-1-yl)acetamido)acetamido)ethyl)phenoxy)-2,5,13-trioxo-3,6,12,14-tetraazaheptadecane-11,15,17-tricarboxylic acid.]: at PSMA [1], the half-maximal inhibitory concentration (IC50) stood at 36.1 ± 18.1 nM. Besides, on PSMA [2], the “Specific binding (SB) SB = TB − NSB” value came to 2.83, the “Total binding (TB)” value came out at 3.30 and the “Nonspecific binding (NSB)” value is reported as 0.47.
In the case of `O=C(O)CCc1ccc2c(c1)C[N+]13CC[N+]45CC(=O)[O][Ga-3]14([O]C(=O)C3)([O]2)[O]c1ccc(CCC(=O)NCC(=O)N[C@@H](Cc2ccc(OCC(=O)N[C@@H](Cc3ccccc3)C(=O)NCCCC[C@H](NC(=O)N[C@@H](CCC(=O)O)C(=O)O)C(=O)O)cc2)C(=O)O)cc1C5` (stereo partly shown) [[^natGa]5b], the IC50 at PSMA [1] amounted to 16.5 ± 3.1 nM.
